Measured values as given in patent US12275731B2, “Azaindole inhibitors of wild-type and mutant forms of LRRK2” (DANA-FARBER CANCER INSTITUTE, INC., priority 2018, dated 2025).

Key:
Experiment in all cases: KinomeScan profiling
Assay type in all cases: binding
KIT(V559D) = biological target: T1, KIT(V559D) (Homo sapiens, UniProt P10721, V559D); settings: read-out: % control
T1 construct: purchased KinomeScan®
Procedure, shortened: (§1)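 Percent-of-control values derive from RLU, calculated as (test − positive)/(negative − positive) × 100, where DMSO defines 100% and a positive control compound defines 0%. Each compound was tested at 1 μM in the 468-kinase panel; sub-35% readings indicate activity.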

TRKA = TRKA (Homo sapiens, UniProt P04629); settings: read-out: % control
Chain of TRKA (P04629 33-796): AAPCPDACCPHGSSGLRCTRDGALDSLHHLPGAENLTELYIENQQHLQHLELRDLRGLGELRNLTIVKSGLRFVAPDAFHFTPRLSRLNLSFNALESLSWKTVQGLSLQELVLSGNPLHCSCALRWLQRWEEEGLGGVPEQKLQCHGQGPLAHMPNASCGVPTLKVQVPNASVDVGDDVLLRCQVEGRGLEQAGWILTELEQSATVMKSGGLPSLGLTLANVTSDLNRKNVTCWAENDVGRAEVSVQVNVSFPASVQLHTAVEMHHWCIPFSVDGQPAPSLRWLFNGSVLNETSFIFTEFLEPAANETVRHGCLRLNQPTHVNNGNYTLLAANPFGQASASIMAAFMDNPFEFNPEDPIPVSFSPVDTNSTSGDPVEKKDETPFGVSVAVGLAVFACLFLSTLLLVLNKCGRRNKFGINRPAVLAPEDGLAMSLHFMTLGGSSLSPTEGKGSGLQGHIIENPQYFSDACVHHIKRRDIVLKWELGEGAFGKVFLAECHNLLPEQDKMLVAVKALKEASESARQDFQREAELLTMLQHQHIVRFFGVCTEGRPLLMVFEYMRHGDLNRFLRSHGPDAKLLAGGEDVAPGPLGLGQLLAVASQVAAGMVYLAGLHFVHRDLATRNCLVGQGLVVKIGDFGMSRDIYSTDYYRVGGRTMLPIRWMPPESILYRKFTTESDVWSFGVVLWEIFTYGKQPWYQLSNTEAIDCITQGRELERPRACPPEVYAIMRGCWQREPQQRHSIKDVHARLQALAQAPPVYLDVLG
Procedure, shortened: as §1

[1] = biological target: T2, RSK4(Kin.Dom.1-N-terminal) (Homo sapiens, UniProt Q9UK32); settings: read-out: % control
T2 construct: ribosomal S6 Kinase 4 (RSK4)(Kin.Dom.1-N-terminal)
T2 sequence (Q9UK32 73-330 limits assumed): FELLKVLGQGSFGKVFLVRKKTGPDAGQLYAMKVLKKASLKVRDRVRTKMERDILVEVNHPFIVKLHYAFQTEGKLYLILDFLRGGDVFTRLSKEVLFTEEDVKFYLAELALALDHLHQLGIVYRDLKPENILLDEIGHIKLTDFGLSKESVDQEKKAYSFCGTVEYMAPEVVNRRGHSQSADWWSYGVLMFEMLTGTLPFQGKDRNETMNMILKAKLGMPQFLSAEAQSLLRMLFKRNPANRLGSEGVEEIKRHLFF
Procedure, shortened: as §1

FGFR3(G697C) = FGFR3(G697C) (Homo sapiens, UniProt P22607, G697C); settings: read-out: % control
Chain of FGFR3(G697C) (P22607 23-806 G697C): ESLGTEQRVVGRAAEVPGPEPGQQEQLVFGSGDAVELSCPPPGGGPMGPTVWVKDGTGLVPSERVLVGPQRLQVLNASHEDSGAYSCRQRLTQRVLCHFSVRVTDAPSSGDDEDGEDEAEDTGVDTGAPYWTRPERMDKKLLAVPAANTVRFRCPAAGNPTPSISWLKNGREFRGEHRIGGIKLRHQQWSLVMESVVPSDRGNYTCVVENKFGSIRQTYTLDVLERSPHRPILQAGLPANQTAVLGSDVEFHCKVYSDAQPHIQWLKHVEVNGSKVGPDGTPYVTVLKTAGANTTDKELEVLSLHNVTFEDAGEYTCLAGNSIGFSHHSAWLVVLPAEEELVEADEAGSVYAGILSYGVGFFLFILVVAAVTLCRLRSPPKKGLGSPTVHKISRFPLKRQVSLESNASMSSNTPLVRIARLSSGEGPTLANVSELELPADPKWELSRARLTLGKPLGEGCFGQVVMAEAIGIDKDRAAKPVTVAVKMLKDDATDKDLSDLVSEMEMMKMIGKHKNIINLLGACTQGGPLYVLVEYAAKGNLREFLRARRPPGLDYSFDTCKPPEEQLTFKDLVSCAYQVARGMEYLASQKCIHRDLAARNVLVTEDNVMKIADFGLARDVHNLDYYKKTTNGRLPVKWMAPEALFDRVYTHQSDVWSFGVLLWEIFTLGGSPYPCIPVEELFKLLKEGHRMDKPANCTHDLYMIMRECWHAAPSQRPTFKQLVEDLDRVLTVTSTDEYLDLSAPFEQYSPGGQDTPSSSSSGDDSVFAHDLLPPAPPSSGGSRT
Procedure, shortened: as §1

ALK(L1196M) = biological target: T3, ALK(L1196M) (Homo sapiens, UniProt Q9UM73, L1196M); settings: read-out: % control
T3 construct: purchased KinomeScan®
T3 sequence (Q9UM73 19-1620 L1196M): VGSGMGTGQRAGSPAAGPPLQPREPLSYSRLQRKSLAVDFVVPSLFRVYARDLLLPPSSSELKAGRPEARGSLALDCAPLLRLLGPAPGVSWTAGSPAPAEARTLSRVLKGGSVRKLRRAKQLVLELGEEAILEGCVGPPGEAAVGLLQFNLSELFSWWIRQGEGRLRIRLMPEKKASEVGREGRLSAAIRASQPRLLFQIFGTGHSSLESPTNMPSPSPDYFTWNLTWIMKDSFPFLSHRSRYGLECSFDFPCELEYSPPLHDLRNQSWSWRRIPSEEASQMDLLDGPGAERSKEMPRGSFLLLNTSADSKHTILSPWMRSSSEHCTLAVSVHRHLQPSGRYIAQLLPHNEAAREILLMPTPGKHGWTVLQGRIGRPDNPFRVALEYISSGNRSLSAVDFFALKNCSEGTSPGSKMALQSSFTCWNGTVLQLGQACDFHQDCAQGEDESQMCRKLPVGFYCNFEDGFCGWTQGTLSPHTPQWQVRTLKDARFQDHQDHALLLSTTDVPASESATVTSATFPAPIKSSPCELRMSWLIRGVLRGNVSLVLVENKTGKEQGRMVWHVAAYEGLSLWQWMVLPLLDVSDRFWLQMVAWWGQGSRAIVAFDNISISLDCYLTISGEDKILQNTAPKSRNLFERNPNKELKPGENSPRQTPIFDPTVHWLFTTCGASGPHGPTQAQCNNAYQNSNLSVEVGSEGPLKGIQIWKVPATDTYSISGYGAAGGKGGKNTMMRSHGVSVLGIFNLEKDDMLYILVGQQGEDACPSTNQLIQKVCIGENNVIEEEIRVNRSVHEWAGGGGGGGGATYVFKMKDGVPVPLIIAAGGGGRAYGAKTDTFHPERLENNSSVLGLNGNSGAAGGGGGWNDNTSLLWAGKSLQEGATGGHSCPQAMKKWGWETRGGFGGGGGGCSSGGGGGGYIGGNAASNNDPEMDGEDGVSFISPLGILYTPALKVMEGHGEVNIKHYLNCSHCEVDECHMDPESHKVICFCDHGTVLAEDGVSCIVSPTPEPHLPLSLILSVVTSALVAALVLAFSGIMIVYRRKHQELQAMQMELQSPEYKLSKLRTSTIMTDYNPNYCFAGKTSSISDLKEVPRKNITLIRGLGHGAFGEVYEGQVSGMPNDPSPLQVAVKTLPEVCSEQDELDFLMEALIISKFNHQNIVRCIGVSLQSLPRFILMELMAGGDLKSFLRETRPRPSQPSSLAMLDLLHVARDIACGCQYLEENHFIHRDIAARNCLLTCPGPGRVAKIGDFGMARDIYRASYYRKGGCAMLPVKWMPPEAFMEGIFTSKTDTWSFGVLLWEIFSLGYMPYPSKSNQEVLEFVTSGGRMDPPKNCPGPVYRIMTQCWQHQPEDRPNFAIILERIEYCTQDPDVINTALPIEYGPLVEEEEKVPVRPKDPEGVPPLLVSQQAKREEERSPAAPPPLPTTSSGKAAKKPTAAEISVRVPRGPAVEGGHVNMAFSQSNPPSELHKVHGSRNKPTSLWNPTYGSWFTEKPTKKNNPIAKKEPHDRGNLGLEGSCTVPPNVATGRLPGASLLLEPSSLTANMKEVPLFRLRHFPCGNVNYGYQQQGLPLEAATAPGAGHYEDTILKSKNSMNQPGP
Procedure, shortened: as §1

FER = FER (Homo sapiens, UniProt P16591); settings: read-out: % control
Chain of FER (P16591 whole entry): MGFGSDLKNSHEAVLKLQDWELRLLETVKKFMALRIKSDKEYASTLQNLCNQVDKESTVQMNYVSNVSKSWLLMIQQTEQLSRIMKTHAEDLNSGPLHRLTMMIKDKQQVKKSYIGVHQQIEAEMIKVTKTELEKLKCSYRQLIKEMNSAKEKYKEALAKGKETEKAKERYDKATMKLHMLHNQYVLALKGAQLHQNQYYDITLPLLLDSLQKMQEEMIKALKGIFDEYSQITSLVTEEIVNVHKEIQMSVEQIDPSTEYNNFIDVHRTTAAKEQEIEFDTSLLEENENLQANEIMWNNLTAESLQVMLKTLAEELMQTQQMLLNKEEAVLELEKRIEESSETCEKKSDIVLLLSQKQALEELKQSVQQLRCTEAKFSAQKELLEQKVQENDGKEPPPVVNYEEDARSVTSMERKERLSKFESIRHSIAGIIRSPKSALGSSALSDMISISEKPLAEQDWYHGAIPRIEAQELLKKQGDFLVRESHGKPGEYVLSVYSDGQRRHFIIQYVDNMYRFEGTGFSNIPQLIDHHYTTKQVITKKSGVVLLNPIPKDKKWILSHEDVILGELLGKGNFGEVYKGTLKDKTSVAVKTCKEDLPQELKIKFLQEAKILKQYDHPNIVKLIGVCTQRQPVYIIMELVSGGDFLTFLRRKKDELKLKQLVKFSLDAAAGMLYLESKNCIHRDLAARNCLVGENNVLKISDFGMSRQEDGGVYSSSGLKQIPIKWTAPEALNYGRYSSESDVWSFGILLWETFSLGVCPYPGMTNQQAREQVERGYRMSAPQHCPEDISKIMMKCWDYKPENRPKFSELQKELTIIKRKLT
Procedure, shortened: as §1

FLT3(D835H) = biological target: T4, FLT3(D835H) (Homo sapiens, UniProt P36888, D835H); settings: read-out: % control
T4 sequence (P36888 27-993 D835H): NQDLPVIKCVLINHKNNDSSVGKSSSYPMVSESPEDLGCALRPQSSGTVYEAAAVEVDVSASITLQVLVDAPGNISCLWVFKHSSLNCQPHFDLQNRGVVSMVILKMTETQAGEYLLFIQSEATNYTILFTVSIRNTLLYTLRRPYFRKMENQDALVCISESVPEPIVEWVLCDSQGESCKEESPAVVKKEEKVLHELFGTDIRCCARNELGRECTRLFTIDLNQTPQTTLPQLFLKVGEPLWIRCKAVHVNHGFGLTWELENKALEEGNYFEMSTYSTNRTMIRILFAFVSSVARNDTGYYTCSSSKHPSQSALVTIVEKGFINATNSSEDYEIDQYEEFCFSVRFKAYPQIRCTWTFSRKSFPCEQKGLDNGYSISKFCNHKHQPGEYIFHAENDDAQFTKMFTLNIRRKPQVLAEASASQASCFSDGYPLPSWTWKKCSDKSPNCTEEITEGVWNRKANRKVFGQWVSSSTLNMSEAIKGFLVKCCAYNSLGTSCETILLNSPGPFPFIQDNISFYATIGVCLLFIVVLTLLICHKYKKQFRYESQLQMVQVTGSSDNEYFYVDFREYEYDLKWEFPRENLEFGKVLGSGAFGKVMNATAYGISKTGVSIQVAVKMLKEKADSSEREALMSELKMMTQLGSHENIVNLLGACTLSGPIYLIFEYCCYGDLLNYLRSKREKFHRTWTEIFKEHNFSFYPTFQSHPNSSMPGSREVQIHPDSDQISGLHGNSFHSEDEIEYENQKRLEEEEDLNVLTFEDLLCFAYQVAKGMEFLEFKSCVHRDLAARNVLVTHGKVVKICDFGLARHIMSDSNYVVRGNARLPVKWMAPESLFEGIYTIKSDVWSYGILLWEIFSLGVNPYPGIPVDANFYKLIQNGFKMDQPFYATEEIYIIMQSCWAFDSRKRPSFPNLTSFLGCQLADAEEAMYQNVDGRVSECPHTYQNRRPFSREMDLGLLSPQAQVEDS
Procedure, shortened: as §1

ASK2 = biological target: T5, ASK2 (Homo sapiens, UniProt O95382); settings: ASK2, 1 μM; read-out: % control
T5 construct: purchased KinomeScan®
T5 sequence (O95382 1-1288): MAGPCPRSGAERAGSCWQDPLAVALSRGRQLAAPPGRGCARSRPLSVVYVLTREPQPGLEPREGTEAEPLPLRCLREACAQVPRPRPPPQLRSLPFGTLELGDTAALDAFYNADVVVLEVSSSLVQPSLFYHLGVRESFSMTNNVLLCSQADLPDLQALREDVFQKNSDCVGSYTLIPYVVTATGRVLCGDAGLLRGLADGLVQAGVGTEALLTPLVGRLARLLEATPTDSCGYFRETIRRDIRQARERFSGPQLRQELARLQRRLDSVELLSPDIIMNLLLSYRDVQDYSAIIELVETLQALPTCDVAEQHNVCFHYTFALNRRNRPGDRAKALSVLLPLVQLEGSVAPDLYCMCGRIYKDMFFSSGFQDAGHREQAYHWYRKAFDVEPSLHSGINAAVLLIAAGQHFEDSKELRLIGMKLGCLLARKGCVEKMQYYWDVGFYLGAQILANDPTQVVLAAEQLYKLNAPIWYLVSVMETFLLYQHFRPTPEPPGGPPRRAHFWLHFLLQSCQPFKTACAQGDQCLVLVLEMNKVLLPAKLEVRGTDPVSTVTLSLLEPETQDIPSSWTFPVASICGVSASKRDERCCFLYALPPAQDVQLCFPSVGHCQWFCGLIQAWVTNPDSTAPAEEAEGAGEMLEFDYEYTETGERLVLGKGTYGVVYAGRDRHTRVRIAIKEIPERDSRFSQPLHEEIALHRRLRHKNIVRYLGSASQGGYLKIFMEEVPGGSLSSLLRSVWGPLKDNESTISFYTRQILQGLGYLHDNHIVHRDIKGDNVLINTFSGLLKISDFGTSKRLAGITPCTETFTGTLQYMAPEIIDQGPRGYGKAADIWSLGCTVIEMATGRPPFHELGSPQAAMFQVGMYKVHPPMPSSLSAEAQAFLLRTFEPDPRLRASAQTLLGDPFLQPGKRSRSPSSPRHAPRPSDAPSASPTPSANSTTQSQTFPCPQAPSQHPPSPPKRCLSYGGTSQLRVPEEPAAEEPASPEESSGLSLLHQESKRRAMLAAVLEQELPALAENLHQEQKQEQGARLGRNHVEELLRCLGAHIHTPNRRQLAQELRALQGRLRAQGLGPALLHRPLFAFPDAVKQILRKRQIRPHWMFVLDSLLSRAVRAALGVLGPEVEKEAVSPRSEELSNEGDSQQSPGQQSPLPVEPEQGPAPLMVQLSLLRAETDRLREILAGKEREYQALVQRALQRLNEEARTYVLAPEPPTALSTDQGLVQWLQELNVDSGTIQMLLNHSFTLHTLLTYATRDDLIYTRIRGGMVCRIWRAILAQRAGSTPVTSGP
Procedure, shortened: as §1

Which results are given for CNc1c(-c2cnn([C@H]3CCN(C(C)=O)C[C@@H]3F)c2)cnc2[nH]cc(Cl)c12 [Compound 77, 1-((3S,4S)-4-(4-(3-chloro-4-(methylamino)-1H-pyrrolo[2,3-b]pyridin-5-yl)-1H-pyrazol-1-yl)-3-fluoropiperidin-1-yl)ethan-1-one]?
remaining binding at 1 µM (KIT(V559D)): 2.8%; remaining binding at 1 µM (TRKA): 0.65%; remaining binding at 1 µM [1]: 32%; remaining binding at 1 µM (FGFR3(G697C)): 51%; remaining binding at 1 µM (ALK(L1196M)): 91%; remaining binding at 1 µM (FER): 100%; remaining binding at 1 µM (FLT3(D835H)): 7.9%; remaining binding at 1 µM (ASK2): 30%

How did the remaining binding at 1 µM (KIT(V559D)) turn out when O=C(c1ccc(-c2cnc3[nH]cc(Cl)c3c2NC2CCCC2)cc1)N1CCC(N2CCOCC2)CC1 [Compound 101, (4-(3-chloro-4-(cyclopentylamino)-1H-pyrrolo[2,3-b]pyridin-5-yl)phenyl)(4-morpholinopiperidin-1-yl)methanone] was run?
Its remaining binding at 1 µM is 50%.

What about the remaining binding at 1 µM (TRKA) of the same molecule?
The remaining binding at 1 µM was 49%.

And the remaining binding at 1 µM [1]?
Its remaining binding at 1 µM is 100%.

And the remaining binding at 1 µM (FGFR3(G697C))?
The remaining binding at 1 µM was 74%.

And the remaining binding at 1 µM (ALK(L1196M))?
Its remaining binding at 1 µM is 94%.

What about the remaining binding at 1 µM (FER) of the same molecule?
Its remaining binding at 1 µM is 100%.

What about the remaining binding at 1 µM (FLT3(D835H)) of the same molecule?
Its remaining binding at 1 µM is 41%.

And the remaining binding at 1 µM (ASK2)?
The remaining binding at 1 µM was 100%.

Which results are given for CNc1c(-c2ccc(C(=O)N3CCC(N4CCOCC4)CC3)cc2)cnc2[nH]cc(Cl)c12 [Compound 96, (4-(3-chloro-4-(methylamino)-1H-pyrrolo[2,3-b]pyridin-5-yl)phenyl)(4-morpholinopiperidin-1-yl)methanone]?
remaining binding at 1 µM (KIT(V559D)): 4.5%; remaining binding at 1 µM (TRKA): 11%; remaining binding at 1 µM [1]: 77%; remaining binding at 1 µM (FGFR3(G697C)): 55%; remaining binding at 1 µM (ALK(L1196M)): 51%; remaining binding at 1 µM (FER): 100%; remaining binding at 1 µM (FLT3(D835H)): 9.9%; remaining binding at 1 µM (ASK2): 42%
